Data taken from patent US11345713B2, “Compounds as modulators of TLR2 signaling” (Neuropore Therapies, inc., priority 2018, dated 2022).

Experiments:
[1] = target: T1, human TLR2 (Pam2CSK4, TLR2/6 agonist) in HEK-Blue hTLR2 cells (Homo sapiens, UniProt O60603); test: HEK-Blue hTLR2 antagonism assay (SEAP reporter) with Pam2CSK4 as agonist; format: cell-based; settings: 2 h compound pre-incubation, approx. 3×EC50 Pam2CSK4, 18 h, SEAP OD 655 nm, background subtracted
T1 construct: host or cells: HEK-Blue hTLR2 (HEK-293)
Procedure: (§1) Synthetic diacylated lipoprotein (Pam2CSK4, TLR2/6 agonist) and synthetic triacylated lipoprotein (Pam3CSK4, TLR1/2 agonist) were obtained from InvivoGen and were dissolved in endotoxin-free water to a concentration 1 mg/mL, vortexed until complete solubilization, and stored in aliquots at −20° C. Prior to addition to cells, an aliquot of the dissolved ligand was vortexed shortly and then was diluted in medium to 25 ng/mL Pam2CSK4 or 1000 ng/mL Pam3CSK4. The EC50 of the agonists for each assay run was determined by using 3-fold dilutions of each agonist from the following starting concentrations: 5 ng/mL for Pam2CSK4, and 200 ng/mL for Pam3CSK4.
(§2) Test compounds were solubilized fresh to 10-20 mM stocks in DMSO and sonicated for 5-10 minutes in a water bath sonicator. Serial dilutions were prepared in DMSO, and then diluted in medium. The final concentration of DMSO used in the assay was 1%.
(§3) HEK-Blue hTLR2 reporter cells (InvivoGen) are HEK-293 cells stably expressing both the human TLR2 gene and a secreted embryonic alkaline phosphatase (SEAP) reporter construct downstream of NFκB promotor sites. HEK-Blue hTLR2 reporters were cultured according to manufacturer's protocol using Dulbecco's Modified Eagle Medium (DMEM; Gibco) containing 1× GlutaMax (Gibco), 10% heat-inactivated Fetal Bovine Serum (Gibco), Pen-Strep (50 U/mL penicillin, 50 μg/mL streptomycin, Gibco), 100 μg/mL Normocin (InvivoGen), and the selective antibiotic, 1× HEK-Blue Selection (InvivoGen). Quanti-Blue reagent (InvivoGen) for detection and quantification of secreted alkaline phosphatase was dissolved in 100 mL of endotoxin-free water, warmed to 37° C. for 30 minutes and then filtered using a 0.2 μm membrane.
(§4) On day 1, 50 μL of each test compound dilution in duplicates or a vehicle control was added to each well of a 96-well plate followed by addition of 150 μL of HEK-Blue hTLR2 cell suspension (1×10^5 cells/well) and incubated at 37° C./5% CO2 for 2 h. Next, 50 μL of an approximate 3×EC50 concentration of each agonist (Pam2CSK4 or Pam3CSK4) was added to the wells containing test compounds or the vehicle control. The plates were then incubated at 37° C./5% CO2 for 18 h. For each assay run, non-treated HEK-Blue hTLR2 cells were treated with serial dilutions of agonists to determine EC50 values for the respective run.
(§5) On day 2, secreted alkaline phosphatase (SEAP) activity was detected in cell culture supernatants. In brief, 20 μL was collected from each well and transferred to a 96-well plate. Next, 200 μL of Quanti-Blue detection reagent was added to each well. Plates were incubated at room temperature for 15 min and SEAP activity was assessed by spectrophotometer OD reading at 655 nm. […] The activities of the compounds against Pam2CSK4 and Pam3CSK4 are presented as IC50 values for the response from cells treated with agonists with the background signal subtracted.

[2] = target: T2, human TLR2 (Pam3CSK4, TLR1/2 agonist) in HEK-Blue hTLR2 cells (Homo sapiens, UniProt O60603); test: HEK-Blue hTLR2 antagonism assay (SEAP reporter) with Pam3CSK4 as agonist; format: cell-based; settings: 2 h compound pre-incubation, approx. 3×EC50 Pam3CSK4, 18 h, SEAP OD 655 nm, background subtracted
T2 construct: host or cells: HEK-Blue hTLR2 (HEK-293)
Procedure: as §1, §2, §3, §4, §5

T2 sequence (O60603 19-784 limits assumed): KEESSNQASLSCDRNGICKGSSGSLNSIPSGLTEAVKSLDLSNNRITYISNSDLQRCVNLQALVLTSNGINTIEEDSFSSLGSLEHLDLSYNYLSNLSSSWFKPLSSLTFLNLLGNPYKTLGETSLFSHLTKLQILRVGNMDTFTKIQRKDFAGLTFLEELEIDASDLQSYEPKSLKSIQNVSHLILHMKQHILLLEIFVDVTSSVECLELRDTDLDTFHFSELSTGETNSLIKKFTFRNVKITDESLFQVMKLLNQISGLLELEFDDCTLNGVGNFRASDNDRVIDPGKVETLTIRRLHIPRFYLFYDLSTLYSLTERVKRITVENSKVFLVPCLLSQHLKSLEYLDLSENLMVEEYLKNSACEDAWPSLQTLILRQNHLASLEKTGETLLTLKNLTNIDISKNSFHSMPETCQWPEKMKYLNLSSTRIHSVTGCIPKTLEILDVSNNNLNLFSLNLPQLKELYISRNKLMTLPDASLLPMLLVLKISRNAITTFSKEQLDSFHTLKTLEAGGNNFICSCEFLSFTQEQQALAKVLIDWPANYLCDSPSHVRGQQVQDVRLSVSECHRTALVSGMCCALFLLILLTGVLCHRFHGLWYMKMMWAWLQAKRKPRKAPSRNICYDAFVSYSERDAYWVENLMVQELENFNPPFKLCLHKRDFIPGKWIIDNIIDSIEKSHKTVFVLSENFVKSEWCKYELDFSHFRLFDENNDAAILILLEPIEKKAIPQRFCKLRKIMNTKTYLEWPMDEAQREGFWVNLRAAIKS
T1 sequence (O60603 19-784 limits assumed): as above

Structure (SMILES)	IC50 [1] [µM]	IC50 [2] [µM]
O=Cc1cc(/C=C/c2ccc(N3CCCC3)cn2)cc(F)c1O [compound 87, (E)-3-fluoro-2-hydroxy-5-(2-(5-(pyrrolidin-1-yl)pyridin-2-yl)vinyl)benzaldehyde]	3.9	3.3
COc1cc(/C=C/c2cc(C=O)c(O)c(OC)c2)ccc1O [compound 34, (E)-2-hydroxy-5-(4-hydroxy-3-methoxystyryl)-3-methoxybenzaldehyde]	9.7	7.5
COc1cc(/C=C/c2ccc(F)cc2F)cc(C=O)c1O [compound 6, (E)-5-(2,4-difluorostyryl)-2-hydroxy-3-methoxybenzaldehyde]	2.5	2.3
COCCOc1ccc(/C=C/c2cc(C=O)c(O)c(OC)c2)cc1 [compound 54, (E)-2-hydroxy-3-methoxy-5-(4-(2-methoxyethoxy)styryl)benzaldehyde]	4	4.6
COc1ccc(/C=C/c2cc(OC)c(O)c(C(C)=O)c2)cc1 [compound 9, (E)-1-(2-hydroxy-3-methoxy-5-(4-methoxystyryl)phenyl)ethan-1-one]	> 100	> 100
COc1cc(/C=C/C(=O)c2ccccc2)cc(C(=O)/C=C/c2ccccc2)c1O [compound 84, (E)-3-(3-cinnamoyl-4-hydroxy-5-methoxyphenyl)-1-phenylprop-2-en-1-one]	3.4	3.1
COc1cc(-c2cc3c(s2)CCN(C(C)C)C3)cc(C=O)c1O [compound 20, 2-hydroxy-5-(5-isopropyl-4,5,6,7-tetrahydrothieno[3,2-c]pyridin-2-yl)-3-methoxybenzaldehyde]	11.2	10
COc1cc(-c2cc3c(s2)CCN(C(=O)OC(C)(C)C)C3)cc(C=O)c1O [compound 12, tert-butyl 2-(3-formyl-4-hydroxy-5-methoxyphenyl)-6,7-dihydrothieno[3,2-c]pyridine-5(4H)-carboxylate]	1.4	1.3
COc1cc(/C=C/c2cccc(N3CCCC3)c2)cc(C=O)c1O [compound 46, (E)-2-hydroxy-3-methoxy-5-(3-(pyrrolidin-1-yl)styryl)benzaldehyde]	1.4	1
O=S(=O)(N/N=C/c1cc(/C=C/c2ccc(N3CCCC3)cc2)cc(F)c1O)c1ccccc1 [compound 81, N′-((E)-3-fluoro-2-hydroxy-5-((E)-4-(pyrrolidin-1-yl)styryl)benzylidene)benzenesulfonohydrazide]	16.4	13.2
COc1cc(-c2cc3c(s2)CCN(CCF)C3)cc(C=O)c1O [compound 16, 5-(5-(2-fluoroethyl)-4,5,6,7-tetrahydrothieno[3,2-c]pyridin-2-yl)-2-hydroxy-3-methoxybenzaldehyde]	5.9	6.9
Cc1ccc(/C=C/c2cc(F)c(O)c(C=O)c2)cn1 [compound 29, (E)-3-fluoro-2-hydroxy-5-(2-(6-methylpyridin-3-yl)vinyl)benzaldehyde]	9.1	10
CN1CCN(/N=C/c2cc(/C=C/c3ccc(N4CCCC4)cc3)cc(F)c2O)CC1 [compound 76, 2-fluoro-6-((E)-((4-methylpiperazin-1-yl)imino)methyl)-4-((E)-4-(pyrrolidin-1-yl)styryl)phenol]	0.4	0.5
COc1cc(/C=C/c2ccc(-c3ccccc3)cc2)cc(C=O)c1O [compound 36, (E)-5-(2-([1,1′-biphenyl]-4-yl)vinyl)-2-hydroxy-3-methoxybenzaldehyde]	0.6	0.4
Oc1c(F)cc(/C=C/c2ccc(N3CCCC3)cc2)cc1/C=N/c1ccccc1 [compound 78, 2-fluoro-6-((E)-(phenylimino)methyl)-4-((E)-4-(pyrrolidin-1-yl)styryl)phenol]	1	0.9
COc1ccc(/C=C/c2cc(C=O)c(O)cc2F)cc1 [compound 22, (E)-4-fluoro-2-hydroxy-5-(4-methoxystyryl)benzaldehyde]	17.8	6.3

Structure (SMILES)	IC50 [1] [µM]	IC50 [2] [µM]
CC(=O)N1CCc2sc(-c3cc(F)c(O)c(C=O)c3)cc2C1 [compound 19, 5-(5-acetyl-4,5,6,7-tetrahydrothieno[3,2-c]pyridin-2-yl)-3-fluoro-2-hydroxybenzaldehyde]	26.7	38.1
CCO/N=C/c1cc(/C=C/c2ccc(N3CCCC3)cc2)cc(F)c1O [compound 89, (E)-3-fluoro-2-hydroxy-5-((E)-4-(pyrrolidin-1-yl)styryl)benzaldehyde O-ethyl oxime]	29.5	29.6
O=Cc1cc(/C=C/c2ccc(-c3ccccc3)cc2)cc(F)c1O [compound 37, (E)-5-(2-([1,1′-biphenyl]-4-yl)vinyl)-3-fluoro-2-hydroxybenzaldehyde]	1	0.3
O=Cc1cc(/C=C/c2ccc(N3CCCCC3)cc2)cc(F)c1O [compound 70, (E)-3-fluoro-2-hydroxy-5-(4-(piperidin-1-yl)styryl)benzaldehyde]	0.9	0.4
Oc1c(F)cc(/C=C/c2ccc(N3CCCC3)cc2)cc1C1OCCCO1 [compound 75, (E)-2-(1,3-dioxan-2-yl)-6-fluoro-4-(4-(pyrrolidin-1-yl)styryl)phenol]	1.2	1.3
O=Cc1cc(/C=C\c2ccc(N3CCOCC3)cc2)cc(F)c1O [compound 43, (Z)-3-fluoro-2-hydroxy-5-(4-morpholinostyryl)benzaldehyde]	32.8	40.7
COc1cc(/C=C/c2ccc(F)cc2)cc(C=O)c1O [compound 7, (E)-5-(4-fluorostyryl)-2-hydroxy-3-methoxybenzaldehyde]	7.9	6.2
COCCOc1ccc(/C=C/c2cc(F)c(O)c(C=O)c2)cc1 [compound 55, (E)-3-fluoro-2-hydroxy-5-(4-(2-methoxyethoxy)styryl)benzaldehyde]	3.6	4.1
COc1cc(/C=C/C2CCN(C(=O)OC(C)(C)C)CC2)cc(C=O)c1O [compound 27, tert-butyl (E)-4-(3-formyl-4-hydroxy-5-methoxystyryl)piperidine-1-carboxylate]	4.4	7.7
Oc1c(F)cc(/C=C/c2ccc(N3CCCC3)cc2)cc1/C=N/N1CCNCC1 [compound 96]	3.2	1.3
COc1cc(/C=C/c2ccc3c(c2)CCCN3C(=O)OC(C)(C)C)cc(C=O)c1O [compound 60, tert-butyl (E)-6-(3-formyl-4-hydroxy-5-methoxystyryl)-3,4-dihydroquinoline-1(2H)-carboxylate]	2.3	0.9
COc1cc(-c2cc3c(s2)CCN(C(C)=O)C3)cc(C=O)c1O [compound 15, 5-(5-acetyl-4,5,6,7-tetrahydrothieno[3,2-c]pyridin-2-yl)-2-hydroxy-3-methoxybenzaldehyde]	14.7	12.6
COc1cc(-c2cc3c(s2)CCN(CC2CC2)C3)cc(C=O)c1O [compound 17, 5-(5-(cyclopropylmethyl)-4,5,6,7-tetrahydrothieno[3,2-c]pyridin-2-yl)-2-hydroxy-3-methoxybenzaldehyde]	2	2.1
COc1cc(/C=C/c2ccc3ccccc3c2)cc(C=O)c1O [compound 32, (E)-2-hydroxy-3-methoxy-5-(2-(naphthalen-2-yl)vinyl)benzaldehyde]	1.1	1
O=Cc1cc(/C=C/c2ccncc2)cc(F)c1O [compound 30, (E)-3-fluoro-2-hydroxy-5-(2-(pyridin-4-yl)vinyl)benzaldehyde]	20.6	18.8
COc1ccc(/C=C/c2cc(C=O)c(O)c(OC)c2)cc1 [compound 1, (E)-2-hydroxy-3-methoxy-5-(4-methoxystyryl)benzaldehyde]	3.2	1.7
